The source of these data is patent US7749729B2, “Methods for assessing the risk for development of cardiovascular disease” (University of Washington, priority 2004, dated 2010).

One test concerns the target T1, myeloperoxidase (Homo sapiens, UniProt P05164).
T1 construct: from tissue; host or cells: human neutrophils
Nature of the test: Nitration of HDL by the myeloperoxidase-H2O2-NO2- system (3-nitrotyrosine formation, absorbance at 430 nm). It is filed as biochemical. Particulars: 250 μM H2O2, 500 μM NO2-. How it is done: FIG. 1 describes nitration of HDL by the myeloperoxidase-H2O2-nitrite system. (A,C) HDL (1 mg/ml protein) was incubated for 60 min or the indicated time at 37° C. in phosphate buffer (20 mM sodium phosphate, pH 7.4, 100 μM DTPA) supplemented with 50 nM myeloperoxidase, 250 μM H2O2 and 500 μM NO2^−. Where indicated, the concentrations of (B) NO2^− were varied. 3-Nitrotyrosine formation was monitored spectroscopically following alkalinization of the reaction mixture.
FIG. 2 describes the effect of Cl^− or taurine on HDL nitration by the myeloperoxidase-H2O2—NO2^− system or HOCl—NO2^−. HDL was exposed for 60 min at 37° C. to myeloperoxidase in phosphate buffer supplemented with 250 μM H2O2, 500 μM NO2^− and (A) the indicated concentration of Cl^− or (B) the indicated concentration of taurine and 100 mM Cl^−. […]
HDL oxidation in vitro. […] Concentrations of HOCl and H2O2 were determined spectrophotometrically (ε292=350 M^−1 cm^−1 ε240=39.4 M^−1 cm^−1) (48,49). 3-Nitrotyrosine formation in a 300 μL aliquot of the reaction mixture was determined in a microplate reader by monitoring absorbance at 430 nm following the addition of NaOH to adjust the pH>9.
Myeloperoxidase generates 3-nitrotyrosine in HDL protein under physiologically relevant in vitro conditions. […] We monitored the formation of 3-nitrotyrosine spectroscopically by quantifying absorbance of the alkalinized reaction mixture at 430 nm.

Test [1] has as its system mock-transfected BHK cells (low ABCA1). Briefly: Cholesterol efflux from [3H]cholesterol-labeled mock-transfected BHK cells. It counts as cell-based, hamster. Particulars: 2 to 4 h incubation. Here is the method:
(§1) FIG. 11 describes cholesterol efflux activities of native and HOCl-oxidized HDL, apo A-I, and peptide 18A. [^3H]Cholesterol-labeled mock-(A, C) or ABCA1-transfected (A-C) BHK cells were incubated for 4 h with native (Ctrl), H2O2-oxidized, or HOCl-oxidized HDL (20 µg/mL) or apo A-I (5 µg/mL) (A), for 2 h with 5 µg/mL apo A-I oxidized with the indicated mole ratio of HOCl (B), or for 2 h with control (−) or HOCl-oxidized (+) peptide Ac-18A-NH2 (20 µg/mL) (C). At the end of the incubation, [^3H]cholesterol efflux to the acceptor particle was measured. *P<0.01 compared with controls.
Cell Culture and Cholesterol Efflux. Baby hamster kidney (BHK) cells expressing mifepristone-inducible human ABCA1 were generated as previously described (35). Cellular cholesterol was labeled by adding 1 μCi/mL [^31H]cholesterol (NEN Life Science Products) to the growth medium. Twenty four hours later, strong expression of ABCA1 was induced by incubating the cells for 20 h with DMEM containing 1 mg/mL bovine serum albumin (DMEM/BSA) and 1 nM mifepristone (Vaughan et al., 2003. J Lipid Res 44:1373-1380). […] Cholesterol efflux mediated by HDL, apo A-I, or peptide was calculated as the percentage of total [^31H]cholesterol (medium plus cell) released into the medium after subtracting the value obtained with DMEM/BSA alone. […]

In test [2] the test system is ABCA1-transfected BHK cells. Nature of the test: Cholesterol efflux from [3H]cholesterol-labeled ABCA1-transfected BHK cells. It is filed as cell-based, hamster. Particulars: for effect of oxidation of the acceptor on cholesterol efflux, compared with native acceptor: ABCA1-transfected BHK cells, acceptor oxidized with HOCl or H2O2. Here is the method:
as §1
Cell Culture and Cholesterol Efflux. Baby hamster kidney (BHK) cells expressing mifepristone-inducible human ABCA1 were generated as previously described (35). Cellular cholesterol was labeled by adding 1 μCi/mL [^31H]cholesterol (NEN Life Science Products) to the growth medium. Twenty four hours later, strong expression of ABCA1 was induced by incubating the cells for 20 h with DMEM containing 1 mg/mL bovine serum albumin (DMEM/BSA) and 1 nM mifepristone (Vaughan et al., 2003. J Lipid Res 44:1373-1380). To measure cholesterol efflux, mock- or ABCA1-transfected cells were incubated with DMEM/BSA without or with HDL, apo A-I, or peptide. After 2 to 4 h, the medium and cells were assayed for [^3H]cholesterol as described (Id.). Cholesterol efflux mediated by HDL, apo A-I, or peptide was calculated as the percentage of total [^31H]cholesterol (medium plus cell) released into the medium after subtracting the value obtained with DMEM/BSA alone.
We exposed HDL or purified apo A-I to HOCl or H2O2 (80:1 or 25:1, mol/mol, oxidant:HDL particle or oxidant:apo A-I) in a physiological buffer (138 mM NaCl, 2.7 mM KCl, 10 mM sodium phosphate) at neutral pH for 120 min at 37° C., terminating the reaction with a 20-fold molar excess (relative to oxidant) of methionine. […]

T1 sequence (P05164 279-745 limits assumed): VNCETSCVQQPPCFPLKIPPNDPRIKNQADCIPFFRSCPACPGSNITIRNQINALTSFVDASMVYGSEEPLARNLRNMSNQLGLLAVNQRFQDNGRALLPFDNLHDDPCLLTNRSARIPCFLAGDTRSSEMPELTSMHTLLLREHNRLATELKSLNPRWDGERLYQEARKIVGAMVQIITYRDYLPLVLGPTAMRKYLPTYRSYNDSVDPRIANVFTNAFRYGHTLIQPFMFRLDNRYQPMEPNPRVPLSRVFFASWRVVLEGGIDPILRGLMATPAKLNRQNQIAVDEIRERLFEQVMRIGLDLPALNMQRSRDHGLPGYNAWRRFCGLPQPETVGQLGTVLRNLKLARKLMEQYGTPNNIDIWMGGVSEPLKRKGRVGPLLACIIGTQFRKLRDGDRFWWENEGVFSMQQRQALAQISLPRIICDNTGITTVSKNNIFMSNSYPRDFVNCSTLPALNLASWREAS
T1 sequence (P05164 165-273 limits assumed): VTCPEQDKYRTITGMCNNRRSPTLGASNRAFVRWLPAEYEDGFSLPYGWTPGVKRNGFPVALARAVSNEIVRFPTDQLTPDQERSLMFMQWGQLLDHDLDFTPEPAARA

As for `NCCS(=O)(=O)O` [Taurine, 2-aminoethanesulfonic acid], on myeloperoxidase (myeloperoxidase, 100 mM Cl-, 60 min, 37° C.), the “effect on HDL nitration (3-nitrotyrosine formation) in the presence of Cl-” value is recorded as “no effect”.

Acetyl-18A-NH2: the “cholesterol efflux to the acceptor” value in test [1] was “promoted cholesterol efflux”.

For the molecule “H2O2-oxidized apo A-I: purified apo A-I exposed to H2O2 (25:1 mol/mol oxidant:apo A-I)”, the “effect of oxidation of the acceptor on cholesterol efflux, compared with native acceptor” value in test [2] is recorded as “no effect”.

For “HOCl-oxidized apo A-I: purified apo A-I exposed to HOCl (25:1 mol/mol oxidant:apo A-I)”, the “effect of oxidation of the acceptor on cholesterol efflux, compared with native acceptor” value in test [2] is “significant decrease”.

As to “apo A-I: purified apolipoprotein A-I, HDL's major protein”, the “cholesterol efflux to the acceptor” value in test [2] (ABCA1-transfected BHK cells (ABCA1 overexpressed), 2 to 4 h incubation) was “became active”; in test [1], “essentially no cholesterol efflux activity”.

Take catalase: the “effect on HDL nitration (3-nitrotyrosine formation)” value at myeloperoxidase (1 mg/ml HDL, 50 nM myeloperoxidase, pH 7.4, 37° C., catalase 200 nM, sodium azide 10 mM) is “inhibited”.
